Consider one compound from ChEMBL document CHEMBL1147107, “Safety and pharmacokinetics of brecanavir, a novel human immunodeficiency virus type 1 protease inhibitor, following repeat administration with and without ritonavir in healthy adult subjects” (Antimicrob Agents Chemother, 2007).

Common to all, as to assay type: ADME, organism-based
Data set [1] can be described thus: AUC (0-tau) in healthy human plasma at 800 mg for every 12 hrs measured on day 15.
The nature of data set [2]: Cmax in healthy human plasma at 800 mg measured on day 1. Details: dose 800 mg.
Data set [3] is described as follows: Cmax in healthy human plasma at 800 mg for every 12 hrs measured on day 15. Details: dose 800 mg.
Data set [4] can be described thus: Tmax in healthy human plasma at 800 mg measured on day 1.
Data set [5] can be described thus: Tmax in healthy human plasma at 800 mg for every 12 hrs measured on day 15.
Data set [6] is described as follows: Trough concentration in healthy human plasma at 800 mg for every 12 hrs measured on day 15. Particulars: read-out: Cmin.
The nature of data set [7]: Apparent oral clearance in healthy human plasma at 800 mg for every 12 hrs measured on day 15.

For the compound `Cc1nc(COc2ccc(C[C@H](NC(=O)O[C@H]3CO[C@H]4OCC[C@H]43)[C@H](O)CN(CC(C)C)S(=O)(=O)c3ccc4c(c3)OCO4)cc2)cs1` [BRECANAVIR], the AUC tau at 12 h in data set [1] was 199 ng·h/mL. Besides, the Cmax amounted to 3.96 ng/mL in data set [2] and 49.2 ng/mL in data set [3]. The Tmax stood at 2.5 h in data set [4] and 3.75 h in data set [5]. In data set [6], the concentration at 12 h stood at 2.6 ng/mL. In addition, the CL/F in data set [7] was 67000 mL/min.
